Laboratory results published in patent US6699854B2, “Anti-cancer compounds” (Cyclacel Limited, priority 2000, dated 2004).

What was measured:
CDK2/cyclin E = molecular target: T1, CDK2/cyclin E (Homo sapiens, UniProt P24941); experiment: CDK2/cyclin E kinase assay (GST-Rb phosphorylation); type: biochemical; conditions: Table 2, further results for CDK2/cyclin E inhibition; read-out: CDK2/cyclin E;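 also: enzyme source: His-tagged CDK2/cyclin E co-expressed in Sf9 insect cells via baculovirus, then purified by metal-chelate chromatography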
T1 construct: His; made in house; host or cells: Sf9 insect cells (baculovirus)

A549 = experiment: 72-h MTT cytotoxicity assay, A549; type: cell-based, human; conditions: Homo sapiens, Table 4, additional data for cytotoxicity assay using the A549 cell line; read-out: A549
Procedure: Selected compounds from the above examples were subjected to a standard cellular proliferation assay using a range of different human tumour cell lines. Standard 72-h MTT (thiazolyl blue; 3-{4,5-dimethylthiazol-2-yl}-2,5-diphenyltetrazolium bromide) assays were performed (Haselsberger, K.; Peterson, D. C.; Thomas, D. G.; Darling, J. L. Anti Cancer Drugs 1996, 7, 331-8; Loveland, B. E.; Johns, T. G.; Mackay, I. R.; Vaillant, F.; Wang, Z. X.; Hertzog, P. J. Biochemistry International 1992, 27, 501-10). Human tumour cell lines were obtained from the ATCC (American Type Culture Collection, 10801 University Boulevard, Manessas, Va. 20110-2209, USA).

Structure (SMILES) | IC50 (CDK2/cyclin E) [nM] | IC50 (A549) [nM]
COc1cccc(Nc2nccc(-c3sc(C)nc3C)n2)c1 [Compound 38, {4-(2,4-Dimethyl-thiazol-5-yl)-pyrimidin-2-yl}-(3-methoxy-phenyl)-amine] | 400 ± 300 | 4500 ± 1600
COc1ccc(Nc2nccc(-c3sc(C)nc3C)n2)cc1 [Compound 39, {4-(2,4-Dimethyl-thiazol-5-yl)-pyrimidin-2-yl}-(4-methoxy-phenyl)-amine] | 220 ± 70 | 300
Cc1nc(C)c(-c2ccnc(Nc3ccc(O)c([N+](=O)[O-])c3)n2)s1 [Compound 45, 4-{4-(2,4-Dimethyl-thiazol-5-yl)-pyrimidin-2-ylamino}-2-nitro-phenol] | 210 ± 160 | 3300 ± 500
Cc1nc(C)c(-c2ccnc(Nc3ccc(C#N)cc3)n2)s1 [Compound 48, 4-{4-(2,4-Dimethyl-thiazol-5-yl)-pyrimidin-2-ylamino}-benzonitrile] | 30 | 6700 ± 1100
Cc1nc(C)c(-c2ccnc(Nc3cccc(C#N)c3)n2)s1 [Compound 49, 3-{4-(2,4-Dimethyl-thiazol-5-yl)-pyrimidin-2-ylamino}-benzonitrile] | 20 | 2200 ± 20
COC(=O)c1ccc(Nc2nccc(-c3sc(C)nc3C)n2)cc1 [Compound 50, 4-{4-(2,4-Dimethyl-thiazol-5-yl)-pyrimidin-2-ylamino}-benzoic acid methyl ester] | 300 | 8800 ± 10000
Cc1nc(C)c(-c2ccnc(Nc3ccc(C)c(Cl)c3)n2)s1 [Compound 51, (3-Chloro-4-methyl-phenyl)-{4-(2,4-dimethyl-thiazol-5-yl)-pyrimidin-2-yl}-amine] | 750 | 300 ± 300
COc1ccc(Nc2nccc(-c3sc(C)nc3C)n2)cc1Cl [Compound 52, (3-Chloro-4-methoxy-phenyl)-{4-(2,4-dimethyl-thiazol-5-yl)-pyrimidin-2-yl}-amine] | 60 | 800 ± 300
Cc1nc(C)c(-c2ccnc(Nc3ccc(C(=O)O)cc3)n2)s1 [Compound 53, 4-{4-(2,4-Dimethyl-thiazol-5-yl)-pyrimidin-2-ylamino}-benzoic acid] | 700 ± 400 | 12000 ± 5000
Cc1nc(-c2ccccc2)sc1-c1ccnc(Nc2ccc(O)cc2)n1 [Compound 60, 4-{4-(4-Methyl-2-phenyl-thiazol-5-yl)-pyrimidin-2-ylamino}-phenol] | 4000 | 2100 ± 300
CNc1nc(C)c(-c2ccnc(Nc3ccc(F)cc3)n2)s1 [Compound 62, (4-Fluoro-phenyl)-{4-(4-methyl-2-methylamino-thiazol-5-yl)-pyrimidin-2-yl}-amine] | 60 ± 30 | 1100 ± 200
CNc1nc(C)c(-c2ccnc(Nc3ccc(I)cc3)n2)s1 [Compound 72, (4-Iodo-phenyl)-{4-(4-methyl-2-methylamino-thiazol-5-yl)-pyrimidin-2-yl}-amine] | 900 | 800 ± 500
CNc1nc(C)c(-c2ccnc(Nc3ccc(O)c([N+](=O)[O-])c3)n2)s1 [Compound 73, 4-{4-(4-Methyl-2-methylamino-thiazol-5-yl)-pyrimidin-2-ylamino}-2-nitro-phenol] | 200 | 9000 ± 4000
CCOC(=O)c1ccc(Nc2nccc(-c3sc(NC)nc3C)n2)cc1Cl [Compound 74, 2-Chloro-4-{4-(4-methyl-2-methylamino-thiazol-5-yl)-pyrimidin-2-ylamino}-benzoic acid ethyl ester] | 100 | 18000 ± 4000
CCNc1nc(C)c(-c2ccnc(Nc3ccc(F)cc3)n2)s1 [Compound 75, {4-(2-Ethylamino-4-methyl-thiazol-5-yl)-pyrimidin-2-yl}-(4-fluoro-phenyl)-amine] | 200 | 3200 ± 400
CNc1nc(C)c(-c2ccnc(Nc3cccc([N+](=O)[O-])c3)n2)s1 [Compound 76, (4-{4-Methyl-2-methylamino-thiazol-5-yl)-pyrimidin-2-yl}-(3-nitro-phenyl)-amine] | 800 | 3000 ± 900
C=CCNc1nc(C)c(-c2ccnc(Nc3ccc(F)cc3)n2)s1 [Compound 82, {4-(2-Allylamino-4-methyl-thiazol-5-yl)-pyrimidin-2-yl}-(4-fluoro-phenyl)-amine] | 200 | 1100 ± 300
CNc1nc(C)c(-c2ccnc(Nc3cccc(Br)c3)n2)s1 [Compound 83, (3-Bromo-phenyl)-{4-(4-methyl-2-methylamino-thiazol-5-yl)-pyrimidin-2-yl}-amine] | 200 | 600 ± 300
CNc1nc(C)c(-c2ccnc(Nc3ccc(Br)cc3)n2)s1 [Compound 86, (4-Bromo-phenyl)-{4-(4-methyl-2-methylamino-thiazol-5-yl)-pyrimidin-2-yl}-amine] | 130 | 8000 ± 6000
CNc1nc(C)c(-c2ccnc(Nc3ccc(Cl)cc3)n2)s1 [Compound 87, (4-Chloro-phenyl)-{4-(4-methyl-2-methylamino-thiazol-5-yl)-pyrimidin-2-yl}-amine] | 80 | 1700 ± 100
CNc1nc(C)c(-c2ccnc(Nc3cccc(OC)c3)n2)s1 [Compound 88, (3-Methoxy-phenyl)-{4-(4-methyl-2-methylamino-thiazol-5-yl)-pyrimidin-2-yl}-amine] | 200 | 400 ± 100
CNc1nc(C)c(-c2ccnc(Nc3ccc(C(F)(F)F)cc3)n2)s1 [Compound 89, {4-(4-Methyl-2-methylamino-thiazol-5-yl)-pyrimidin-2-yl}-(4-trifluoromethyl-phenyl)-amine] | 1200 | 18000 ± 11000
CNc1nc(C)c(-c2ccnc(Nc3cccc(C(F)(F)F)c3)n2)s1 [Compound 90, {4-(4-Methyl-2-methylamino-thiazol-5-yl)-pyrimidin-2-yl}-(3-trifluoromethyl-phenyl)-amine] | 200 | 1800 ± 800
Cc1nc(C)c(-c2ccnc(Nc3ccc(I)cc3F)n2)s1 [Compound 94, {4-(2,4-Dimethyl-thiazol-5-yl)-pyrimidin-2-yl}-(2-fluoro-4-iodo-phenyl)-amine] | 600 | 500 ± 600
Cc1nc(C)c(-c2ccnc(Nc3ccc(O)c(Cl)c3)n2)s1 [Compound 97, 2-Chloro-4-{4-(2,4-dimethyl-thiazol-5-yl)-pyrimidin-2-ylamino}-phenol] | 600 | 4200 ± 400
COCCOC(=O)c1cc(Nc2nccc(-c3sc(C)nc3C)n2)ccc1F [Compound 98, 5-{4-(2,4-Dimethyl-thiazol-5-yl)-pyrimidin-2-ylamino}-2-fluoro-benzoic acid 2-methoxy-ethyl ester] | 1100 | 2800 ± 2100
CNc1nc(C)c(-c2ccnc(Nc3ccc(F)cc3F)n2)s1 [Compound 105, (2,4-Difluoro-phenyl)-{4-(4-methyl-2-methylamino-thiazol-5-yl)-pyrimidin-2-yl}-amine] | 2000 | 700 ± 900
CNc1nc(C)c(-c2ccnc(Nc3cc(F)cc(F)c3)n2)s1 [Compound 106, (3,5-Difluoro-phenyl)-{4-(4-methyl-2-methylamino-thiazol-5-yl)-pyrimidin-2-yl}-amine] | 10000 | 2800 ± 500
CNc1nc(C)c(-c2ccnc(Nc3ccc(Cl)c(C(F)(F)F)c3)n2)s1 [Compound 107, (4-Chloro-3-trifluoromethyl-phenyl)-{4-(4-methyl-2-methylamino-thiazol-5-yl)-pyrimidin-2-yl}-amine] | 3000 | 700 ± 200
